Several values for one entry are separate records, joined by “and”; a condition that tells them apart may be missing. Equal entries are not always repeated. Where two headings read alike, the source gives them in different places. Where a SMILES comes first, the peptide text is derived from it. Where no end group is shown, it is not given here. [ ]: non-standard residue; d: D form. The star is where a group is joined. Phe(4-NO2) = N[C@@H](Cc1ccc([N+](=O)[O-])cc1)C(=O)O; Phe(4-NH2) = Nc1ccc(C[C@H](N)C(=O)O)cc1; Desaminotyrosyl = O=C(CCc1ccc(O)cc1)*
What was measured:
[1] = target: T1, herpes simplex viral ribonucleotide reductase (Human herpesvirus 1, UniProt P08543); assay: biochemical; assay type: biochemical, herpes simplex virus
T1 construct: endogenous in cells
T1 sequence (P08543 whole entry): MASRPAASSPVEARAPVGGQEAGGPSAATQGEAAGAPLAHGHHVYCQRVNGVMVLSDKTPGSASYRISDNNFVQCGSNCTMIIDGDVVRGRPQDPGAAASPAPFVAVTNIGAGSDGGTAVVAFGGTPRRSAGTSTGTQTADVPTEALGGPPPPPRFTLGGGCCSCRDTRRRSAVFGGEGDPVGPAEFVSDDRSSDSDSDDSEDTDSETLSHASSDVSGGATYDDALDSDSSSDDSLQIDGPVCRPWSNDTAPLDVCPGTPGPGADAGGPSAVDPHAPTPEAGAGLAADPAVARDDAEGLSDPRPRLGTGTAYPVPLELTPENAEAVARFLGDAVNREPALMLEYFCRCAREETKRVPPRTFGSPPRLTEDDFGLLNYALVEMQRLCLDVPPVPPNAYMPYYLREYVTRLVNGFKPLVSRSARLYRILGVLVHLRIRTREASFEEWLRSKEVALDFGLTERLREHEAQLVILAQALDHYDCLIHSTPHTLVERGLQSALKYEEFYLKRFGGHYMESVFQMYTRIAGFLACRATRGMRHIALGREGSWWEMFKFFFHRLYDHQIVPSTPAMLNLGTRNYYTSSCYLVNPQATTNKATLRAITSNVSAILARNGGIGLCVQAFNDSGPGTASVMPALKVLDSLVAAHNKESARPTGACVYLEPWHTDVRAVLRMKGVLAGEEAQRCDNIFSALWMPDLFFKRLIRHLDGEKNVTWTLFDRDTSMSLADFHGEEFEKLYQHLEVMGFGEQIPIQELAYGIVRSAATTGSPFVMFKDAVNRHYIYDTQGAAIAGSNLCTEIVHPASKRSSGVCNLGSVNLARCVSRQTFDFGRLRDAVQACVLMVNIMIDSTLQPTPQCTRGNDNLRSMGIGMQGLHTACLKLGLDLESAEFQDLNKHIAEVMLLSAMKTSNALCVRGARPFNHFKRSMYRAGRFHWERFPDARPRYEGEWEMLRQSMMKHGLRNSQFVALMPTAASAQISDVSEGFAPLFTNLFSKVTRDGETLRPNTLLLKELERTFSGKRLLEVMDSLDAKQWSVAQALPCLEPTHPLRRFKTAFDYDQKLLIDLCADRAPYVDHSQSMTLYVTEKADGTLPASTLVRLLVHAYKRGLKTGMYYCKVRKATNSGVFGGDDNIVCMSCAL

[2] = test system: HSV-2 strain HG-52; assay: Guinea pig cutaneous herpes infection model, HSV-2; assay type: in vivo; details: HSV-2 group, mean score
[3] = test system: HSV-1 strain MP-12; assay: Guinea pig cutaneous herpes infection model, HSV-1; assay type: in vivo; details: HSV-1 group, mean score
[4] = target: ribonucleotide reductase from HSV-1 (strain F)-infected BHK-21/C13 cells (Human herpesvirus 1, UniProt P08543); assay: HSV-1 ribonucleotide reductase (CDP reductase) inhibition; details: 75 μg protein extract
Chain of ribonucleotide reductase from HSV-1 (strain F)-infected BHK-21/C13 cells (P08543 whole entry): as above

[5] = read-out: IC50 (concentration producing 50% of the maximal inhibition of enzyme activity)
[6] = read-out: IC50 (concentration producing 50% of the maximal inhibition of enzyme activity), 75 μg enzyme preparation (21.6 units mg^-1), mean of four assays
[7] = 75 μg enzyme preparation (21.6 units mg^-1), mean of four assays
[8] = IC50 (concentration producing 50% of the maximal inhibition of enzyme activity)

CC(=O)N[C@H](Cc1ccc(O)cc1)C(=O)N[C@@H](C)C(=O)NCC(=O)N[C@@H](C)C(=O)N[C@H](C(=O)N[C@H](C(=O)N[C@@H](CC(N)=O)C(=O)N[C@@H](CC(=O)O)C(=O)N[C@@H](CC(C)C)C(=O)O)C(C)C)C(C)C [Ac--D--Tyr--Ala--Gly--Ala--Val--Val--Asn--Asp--Leu--OH]
IC50 [1, 5]: 165 µM

COc1ccc(C[C@H](NC(C)=O)C(=O)N[C@@H](C)C(=O)NCC(=O)N[C@@H](C)C(=O)N[C@H](C(=O)N[C@H](C(=O)N[C@@H](CC(N)=O)C(=O)N[C@@H](CC(=O)O)C(=O)N[C@@H](CC(C)C)C(=O)O)C(C)C)C(C)C)cc1 [Ac--Tyr(OMe)--Ala--Gly--Ala--Val--Val--Asn--Asp--Leu--OH]
IC50 [1, 6]: 40 µM

CC[C@H](C)[C@H](NC(=O)[C@@H](NC(=O)[C@H](Cc1ccc(OC)cc1)NC(C)=O)C(C)C)C(=O)N[C@@H](CC(N)=O)C(=O)N[C@@H](CC(=O)O)C(=O)N[C@@H](CC(C)C)C(=O)O [Ac--Tyr(OMe)--Val--Ile--Asn--Asp--Leu--OH] (Ac-Y(Me)VINDL-OH)
IC50 [1]: 24 µM

CC(=O)N[C@@H](Cc1ccc(O)cc1)C(=O)N[C@@H](C)C(=O)NCC(=O)N[C@@H](C)C(=O)N[C@H](C(=O)N[C@H](C(=O)N[C@@H](CC(N)=O)C(=O)N[C@@H](CC(=O)O)C(=O)N[C@@H](CC(C)C)C(N)=O)C(C)C)C(C)C [Ac--Tyr--Ala--Gly--Ala--Val--Val--Asn--Asp--Leu--NH2]
IC50 [1, 6]: 76 µM

CC(=O)N[C@@H](Cc1ccc(O)cc1)C(=O)N[C@@H](C)C(=O)NCC(=O)N[C@@H](C)C(=O)N[C@H](C(=O)N[C@H](C(=O)N[C@@H](CC(N)=O)C(=O)N[C@@H](CC(=O)O)C(=O)N[C@@H](CC(C)C)C(=O)O)C(C)C)C(C)C [Ac--Tyr--Ala--Gly--Ala--Val--Val--Asn--Asp--Leu--OH]
IC50 [1, 5]: 20 µM

CC(=O)N[C@@H](Cc1ccc(O)cc1)C(=O)N[C@H](C)C(=O)NCC(=O)N[C@@H](C)C(=O)N[C@H](C(=O)N[C@H](C(=O)N[C@@H](CC(N)=O)C(=O)N[C@@H](CC(=O)O)C(=O)N[C@@H](CC(C)C)C(=O)O)C(C)C)C(C)C [Ac--Tyr--D--Ala--Gly--Ala--Val--Val--Asn--Asp-- Leu--OH]
IC50 [1, 5]: 230 µM

Nc1nc2c(ncn2COCCO)c(=O)[nH]1 [Acyclovir, acyclovir]
skin lesion score ([2]; day 1, topical twice daily): 0.50 | skin lesion score ([2]; day 2, topical twice daily): 0.50 | skin lesion score ([2]; day 3, topical twice daily): 0.63 | skin lesion score ([2]; day 4, topical twice daily): 0.67 | skin lesion score ([2]; day 5, topical twice daily): 1.23 | skin lesion score ([2]; day 6, topical twice daily): 0.57 | skin lesion score ([2]; day 7, topical twice daily): 0.40 | skin lesion score ([2]; day 8, topical twice daily): 0.13 | skin lesion score ([2]; day 9, topical twice daily): 0.13 | skin lesion score ([2]; day 10, topical twice daily): 0.00 | skin lesion score ([2]; day 11, topical twice daily): 0.00 | skin lesion score ([3]; day 1, topical twice daily): 0.50 | skin lesion score ([3]; day 2, topical twice daily): 0.50 | skin lesion score ([3]; day 3, topical twice daily): 0.28 | skin lesion score ([3]; day 4, topical twice daily): 0.20 | skin lesion score ([3]; day 5, topical twice daily): 0.20 | skin lesion score ([3]; day 6, topical twice daily): 0.20 | skin lesion score ([3]; day 7, topical twice daily): 0.15 | skin lesion score ([3]; day 8, topical twice daily): 0.00 | skin lesion score ([3]; day 9, topical twice daily): 0.00 | skin lesion score ([3]; day 10, topical twice daily): 0.00 | skin lesion score ([3]; day 11, topical twice daily): 0.00

CC[C@H](C)[C@H](NC(=O)[C@H](CC(=O)O)NC(=O)[C@H](CC(N)=O)NC(=O)[C@@H](NC(=O)[C@@H](NC(=O)[C@H](C)NC(=O)CNC(=O)[C@H](C)NC(=O)[C@H](Cc1ccc(O)cc1)NC(=O)[C@@H](N)Cc1ccc(N)cc1)C(C)C)C(C)C)C(=O)O [H--(4-NH2 -Phe)--Tyr--Ala--Gly--Ala--Val--Val--Asn--Asp--Ile--OH] (H-[Phe(4-NH2)]YAGAVVNDI-OH)
IC50 [1, 7]: 15 µM

CC[C@H](C)[C@H](NC(=O)[C@H](CC(=O)O)NC(=O)[C@H](CC(N)=O)NC(=O)[C@@H](NC(=O)[C@@H](NC(=O)[C@H](C)NC(=O)CNC(=O)[C@H](C)NC(=O)[C@H](Cc1ccc(O)cc1)NC(=O)[C@@H](N)Cc1ccc([N+](=O)[O-])cc1)C(C)C)C(C)C)C(=O)O [H--(4-NO2 -Phe)--Tyr--Ala--Gly--Ala--Val--Val--Asn--Asp--Ile--OH] (H-[Phe(4-NO2)]YAGAVVNDI-OH)
IC50 [1, 7]: 6.8 µM

COc1ccc(C[C@H](N)C(=O)N[C@@H](C)C(=O)NCC(=O)N[C@@H](C)C(=O)N[C@H](C(=O)N[C@H](C(=O)N[C@@H](CC(N)=O)C(=O)N[C@@H](CC(=O)O)C(=O)N[C@@H](CC(C)C)C(=O)O)C(C)C)C(C)C)cc1 [H--Tyr(OMe)--Ala--Gly--Ala--Val--Val--Asn--Asp--Leu--OH]
IC50 [1, 5]: 88 µM

CC(C)C[C@H](NC(=O)[C@H](CC(=O)O)NC(=O)[C@H](CC(N)=O)NC(=O)[C@@H](NC(=O)[C@@H](NC(=O)[C@H](C)NC(=O)CNC(=O)[C@H](C)NC(=O)[C@@H](N)Cc1ccc(O)cc1)C(C)C)C(C)C)C(N)=O [H--Tyr--Ala--Gly--Ala--Val--Val--Asn--Asp--Leu--NH2]
IC50 [1, 5]: 190 µM

CC(C)C[C@H](NC(=O)[C@H](CC(=O)O)NC(=O)[C@H](CC(N)=O)NC(=O)[C@@H](NC(=O)[C@@H](NC(=O)[C@H](C)NC(=O)CNC(=O)[C@H](C)NC(=O)[C@H](Cc1ccc(O)cc1)NC(=O)CCCCCCCN)C(C)C)C(C)C)C(=O)O [NH2 (CH2)7 CO--Tyr--Ala--Gly--Ala--Val--Val--Asn--Asp--Leu--OH]
IC50 [1, 7]: 12.3 µM

CC[C@H](C)[C@H](NC(=O)[C@@H](NC(=O)CCc1ccc(O)cc1)C(C)C)C(=O)N[C@@H](CC(N)=O)C(=O)N[C@@H](CC(=O)O)C(=O)N[C@@H](CC(C)C)C(=O)O [desamino-Tyr--Val--Ile--Asn--Asp--Leu--OH] (Desaminotyrosyl-VINDL-OH)
IC50 [1]: 17 µM

Ac-FVINDL-OH [Ac--Phe--Val--Ile--Asn--Asp--Leu--OH]
IC50 [1]: 42 µM

Ac-Y(Ac)AGFVINDL [Ac--Tyr(OAc)--Ala--Gly--Phe--Val--Ile--Asn--Asp--Leu--OH]
IC50 [1, 7]: 14 µM

Ac-YAATVINDL-OH [Ac--Tyr--Ala--Ala--Thr--Val--Ile--Asn--Asp--Leu--OH]
IC50 [1]: 15 µM

Ac-YAGFVINDL-OH [Ac--Tyr--Ala--Gly--Phe--Val--Ile--Asn--Asp--Leu--OH]
IC50 [1, 7]: 4.2 µM

Ac-YAGTIVNDL-OH [Ac--Tyr--Ala--Gly--Thr--Ile--Val--Asn--Asp--Leu--OH]
IC50 [1]: 4.9 µM

Ac-YAGTVINDL-OH [Ac--Tyr--Ala--Gly--Thr--Val--Ile--Asn--Asp--Leu--OH]
IC50 [1, 8]: 2 µM and 5.2 µM

Ac-YAGTVIQDL-OH [Ac--Tyr--Ala--Gly--Thr--Val--Ile--Gln--Asp--Leu--OH]
IC50 [1]: 36.5 µM

Ac-YAGVVINDL-OH [Ac--Tyr--Ala--Gly--Val--Val--Ile--Asn--Asp--Leu--OH]
IC50 [1, 8]: 4.3 µM

Ac-YAVVNDL-OH [Ac--Tyr--Ala--Val--Val--Asn--Asp--Leu--OH]
IC50 [1, 6]: 330 µM

Ac-YGAVVNDL-OH [Ac--Tyr--Gly--Ala--Val--Val--Asn--Asp--Leu--OH]
IC50 [1, 5]: 150 µM

Ac-YSGTVINDL-OH [Ac--Tyr--Ser--Gly--Thr--Val--Ile--Asn--Asp--Leu--OH]
IC50 [1, 8]: 1.9 µM

Ac-YSVINDL-OH [Ac--Tyr--Ser--Val--Ile--Asn--Asp--Leu--OH]
IC50 [1]: 77 µM

Ac-YVINDL-OH [Ac--Tyr--Val--Ile--Asn--Asp--Leu--OH]
IC50 [1]: 27 µM

Ac-YVVNDL-OH [Ac--Tyr--Val--Val--Asn--Asp--Leu--OH]
IC50 [1]: 31 µM

H-FAGAVVNDL-OH [H--Phe--Ala--Gly--Ala--Val--Val--Asn--Asp--Leu--OH]
IC50 [1]: 68 µM

H-HAGAVVNDL-OH [H--His--Ala--Gly--Ala--Val--Val--Asn--Asp--Leu--OH]
IC50 [1, 7]: 400 µM

H-KYAGAVVNDL-OH [H--Lys--Tyr--Ala--Gly--Ala--Val--Val--Asn--Asp--Leu--OH]
IC50 [1, 6]: 68 µM

H-STSYAGAVVNDL-OH [HSV 4-15]
% CDP REDUCTASE ACTIVITY ([4]; 10 μM peptide): 87% | % CDP REDUCTASE ACTIVITY ([4]; 25 μM peptide): 71% | % CDP REDUCTASE ACTIVITY ([4]; 50 μM peptide): 47% | % CDP REDUCTASE ACTIVITY ([4]; 100 μM peptide): 18% | % CDP REDUCTASE ACTIVITY ([4]; 400 μM peptide): 11%

H-YAGAVLDDL-OH [H--Tyr--Ala--Gly--Ala--Val--Leu--Asp--Asp--Leu--OH]
IC50 [1]: 90 µM

H-YAGAVVNDI-OH [H--Tyr--Ala--Gly--Ala--Val--Val--Asn--Asp--Ile--OH]
IC50 [1]: 110 µM

H-YAGPVVNDL-OH [H--Tyr--Ala--Gly--Pro--Val--Val--Asn--Asp--Leu--OH]
IC50 [1, 6]: 48 µM

H-YAGTVINDL-OH [H--Tyr--Ala--Gly--Thr--Val--Ile--Asn--Asp--Leu--OH]
IC50 [1, 7]: 15 µM

H-YAPAVINDL-OH [H--Tyr--Ala--Pro--Ala--Val--Ile--Asn--Asp--Leu--OH]
IC50 [1]: 37 µM

H-YAVVNDL-OH [H--Tyr--Ala--Val--Val--Asn--Asp--Leu--OH]
IC50 [1, 5]: 340 µM

H-YSGAVVNDL-OH [H--Tyr--Ser--Gly--Ala--Val--Val--Asn--Asp--Leu--OH]
IC50 [1, 7]: 90 µM

H-YTMLVVDDL-OH [EBV 7-15]
% CDP REDUCTASE ACTIVITY ([4]; 10 μM peptide): 100% | % CDP REDUCTASE ACTIVITY ([4]; 25 μM peptide): 100% | % CDP REDUCTASE ACTIVITY ([4]; 50 μM peptide): 100% | % CDP REDUCTASE ACTIVITY ([4]; 100 μM peptide): 70% | % CDP REDUCTASE ACTIVITY ([4]; 400 μM peptide): 10%

H-YVVNDL-OH [H--Tyr--Val--Val--Asn--Asp--Leu--OH]
IC50 [1]: 81 µM

From patent publication US5066783A, “Antiviral peptides and means for treating herpes infections” (priority 1988, dated 1991)
